Values after ≈ are worked out from the molar mass of the structure shown.

The conditions of the data set: buffer; pH 7.4; 200.0 µM.
Turning to `O=C(C(Cl)Cl)N1CCN(Cc2ccc3c(c2)OCO3)CC1`, the kinetic solubility (as a rule, the concentration staying in solution when a stock, usually in DMSO, is diluted into the medium) was 42.6 µg/mL (≈ 129 µM).
For `Cc1ccc(C(C)NC(=O)c2cccs2)cc1C` (stereo not given) the value was 5.7 µg/mL (≈ 22 µM); for `CC(C)(C)c1csc(Sc2ncccc2[N+](=O)[O-])n1`, 1.7 µg/mL (≈ 5.76 µM); for `CC(=O)Nc1ccc(S(=O)(=O)Nc2nccs2)cc1`, greater than 44.6 µg/mL.
With `COc1ccc(C(=O)CSc2nnc3ccccn23)cc1OC` the figure was greater than 49.4 µg/mL; with `CCc1ccc(C(=O)CN2C(=O)NC(C)(c3ccc(C)cc3)C2=O)cc1` (stereo not given), 2.1 µg/mL (≈ 5.99 µM).
With `COc1ccc(CNC(=O)c2csc3c2CCCC3)cc1` the figure was 23.2 µg/mL (≈ 77 µM); with `CCCC(=O)Nc1nnc(SCC(=O)NC2CC2)s1`, greater than 45.1 µg/mL.
The molecule `CC(C)CCCC(C)CCOC(=O)CN1CCCC1` (stereo not given) displayed a solubility (kinetic) of 1.9 µg/mL (≈ 7.05 µM).
For `CC(NC(=O)NC(=O)c1cccc(Cl)c1)c1ccccc1` (stereo not given) the value was 0.9 µg/mL (≈ 2.97 µM); for `O=c1cc(-c2ccc([N+](=O)[O-])cc2)c2cc3c(cc2[nH]1)OCCO3`, 0.9 µg/mL (≈ 2.78 µM); for `Cc1ccc(C(=O)Nc2ccccc2N2CCCCC2)cc1`, less than 0.3 µg/mL.
As to `COCCSc1nnc(NC(=O)c2ccco2)s1`, the kinetic solubility was greater than 42.8 µg/mL.
For `COc1ccc(Cl)cc1C(=O)NCCCSc1ccccc1` the value was 7.8 µg/mL (≈ 23.2 µM); for `O=C(Nc1ccc(F)cc1)C1CC2CCC1C2` (stereo not given), 25.3 µg/mL (≈ 108 µM).
With `COC(=O)C(N)Cc1ccc(OC)c([N+](=O)[O-])c1.Cl` (stereo not given) the figure was greater than 43.6 µg/mL.
`CCn1c(SCc2cccc(OC)c2)nc2ccccc2c1=O` gave a kinetic solubility of 0.8 µg/mL (≈ 2.45 µM).
With `Cc1noc(C)c1-c1nc(CS(=O)(=O)c2ccccc2)no1` the figure was 8 µg/mL (≈ 25.1 µM); with `O=C(NC1CCC1)C1CCC(=O)N(Cc2cccc(F)c2)C1` (stereo not given), greater than 45.7 µg/mL; with `COc1ccc(CCOC(=O)c2cccc(NC(C)=O)c2)cc1`, greater than 47 µg/mL.
`CC(=O)Nc1nc2c(C)c(Cl)ccc2s1` returned a kinetic solubility of less than 0.3 µg/mL.
The molecule `COc1ccc(/C(N)=N/O)c(OC)c1` gave a kinetic solubility greater than 29.4 µg/mL.
`O=C(COC(=O)Cc1ccc(S(=O)(=O)N2CCOCC2)s1)Nc1ccccc1` registered a solubility (kinetic) of 57 µg/mL (≈ 134 µM).
Molecule `O=C(c1cccc(Cl)c1)N1CCN(c2ncccn2)CC1` showed a solubility (kinetic) greater than 45.4 µg/mL.
`O=C(CCCCN1CCCCC1)c1ccc2c(c1)Cc1ccccc1-2` came in with a solubility (kinetic) of 6.6 µg/mL (≈ 19.8 µM).
`Cc1cc(Br)ccc1NC(=O)CNC(=O)CSc1nccn1C` came in with a kinetic solubility greater than 59.6 µg/mL.
In turn, `CC(C)Nc1nc2nonc2nc1Nc1ccccc1` registered a solubility (kinetic) greater than 40.5 µg/mL.
Molecule `Cl.Nc1nc(N)c2[nH]c(-c3ccccc3)nc2n1` returned a solubility (kinetic) greater than 39.4 µg/mL.
The molecule `Cc1nc(N=C(N)N)nc2ccccc12` showed a kinetic solubility greater than 30.2 µg/mL.
With `COc1cc(CN2CCNCC2)cc(OC)c1OC.Cl` the figure was 23.1 µg/mL; with `NS(=O)(=O)c1ccc(NC2=CC(=O)C(=O)c3ccccc32)cc1`, 13.6 µg/mL (≈ 41.4 µM).
With `Cc1cccc(OCC(=O)N2CCc3ccccc3C2)c1` the figure was 34.6 µg/mL (≈ 123 µM); with `CCCCn1c(=N)n(CC(O)c2ccccc2)c2ccccc21.Cl` (stereo not given), greater than 51.9 µg/mL.
`O=C(COC(=O)Cc1cccs1)Nc1cc(S(=O)(=O)N2CCOCC2)ccc1Cl` yielded a kinetic solubility of 56.5 µg/mL (≈ 123 µM).
The molecule `CCCOC(=O)Nc1ccc(S(=O)(=O)Nc2ncccn2)cc1` gave a solubility (kinetic) greater than 50.5 µg/mL.
In turn, `COc1ccc(C)cc1NCc1ccc([N+](=O)[O-])cc1` gave a solubility (kinetic) of 3.1 µg/mL (≈ 11.4 µM).
`CCCC(CNC(=O)COC(=O)C1=NNC(=O)CC1)c1ccc(Cl)cc1Cl` (stereo not given): the solubility (kinetic) is greater than 62.1 µg/mL.
For `COc1ccc(OC)c2sc(Cl)nc12` the value was 18.4 µg/mL (≈ 80.1 µM); for `COc1cc2nc(Cl)nc(NCCO)c2cc1OC`, 24.7 µg/mL (≈ 87.1 µM).
For `COc1ccc(NC(=S)NCCCN2CCOCC2)cc1` the value was greater than 46.4 µg/mL; for `O=C1CCCN1CCCNC(=S)Nc1ccccc1`, 41 µg/mL (≈ 148 µM); for `O=C(CCC1CCN(Cc2ccccc2Cl)CC1)NC1CC1`, greater than 48.1 µg/mL.
With `COCC(C)NC(=O)c1cc2cccc([N+](=O)[O-])c2[nH]1` (stereo not given), the solubility (kinetic) is greater than 41.6 µg/mL.
Molecule `O=C(CNC(=O)c1cccs1)c1ccc(Cl)cc1` displayed a solubility (kinetic) of 26.4 µg/mL (≈ 94.4 µM).
`COc1ccc(NC(=O)C(CC(=O)O)C(C)c2ccccc2)cc1` (stereo not given) had a solubility (kinetic) greater than 49.1 µg/mL.
`O=c1c2ccccc2nc(/C=C/c2ccccn2)n1-c1ccccc1` showed a kinetic solubility of 0.6 µg/mL (≈ 1.84 µM).
With `Cc1nc2nc(SCc3nc4ccccc4[nH]3)[nH]c2cc1Br` the figure was 1.1 µg/mL (≈ 2.94 µM).
As for `CCCNC(=O)N1c2ccccc2Sc2ccccc21`, the solubility (kinetic) stood at 33.6 µg/mL (≈ 118 µM).
With `N#Cc1ccc(C(=O)NC23CC4CC(CC(C4)C2)C3)cc1` the figure was 0.8 µg/mL (≈ 2.85 µM); with `O=C(O)/C=C/c1ccc(S(=O)(=O)NCc2cccnc2)cc1`, greater than 47.8 µg/mL; with `CC(=O)NC(CC(=O)O)C(=O)O` (stereo not given), greater than 26.3 µg/mL.
`O=C(NC1CC1)[C@@H]1CSC2c3ccccc3C(=O)N21` (stereo not given in full): the kinetic solubility is greater than 41.2 µg/mL.
`C#CCOc1c(Cl)cc(/C=C2/C(=O)ON=C2C)cc1OCC` had a kinetic solubility of 39.4 µg/mL (≈ 123 µM).
With `Cc1ccc(NC(=S)N2CCC(NC(=O)c3ccco3)CC2)cc1C` the figure was 39.2 µg/mL (≈ 110 µM).
On to `O=C(OCc1cc2ccccc2[nH]c1=O)c1ccc([N+](=O)[O-])cc1`, for which the solubility (kinetic) is 1.1 µg/mL (≈ 3.39 µM).
`Cc1ccc2[nH]cc(CCNC(=O)c3ccc4c(c3)OCO4)c2c1` yielded a solubility (kinetic) of 38.3 µg/mL (≈ 119 µM).
For `COc1ccc(S(=O)(=O)n2c(C)nc3ccccc32)cc1C` the value was 36.2 µg/mL (≈ 114 µM); for `COc1ccc(C2(CNC(=O)c3ccccc3)CCOCC2)cc1`, greater than 48.8 µg/mL.
For `NC(=S)NC1CC2C=CC1C2` (stereo not given) the value was greater than 25.2 µg/mL.
With `COC(=O)c1ccc(OCC(O)CN2CCOCC2)cc1` (stereo not given) the figure was greater than 44.3 µg/mL.
`C=CCNC(=O)CN1CCC(c2nc3ccccc3[nH]2)CC1`: the solubility (kinetic) was greater than 44.8 µg/mL.
With `COc1cc(C(=O)OCC(C)=O)c([N+](=O)[O-])cc1OC`, the solubility (kinetic) was greater than 42.5 µg/mL.
For `CCC(C(=O)Nc1c(C)cc(C)cc1C)N1CCCCCC1` (stereo not given) the value was 41 µg/mL (≈ 136 µM); for `C/C(=C\c1ccccc1)CN1CCN(C(C)C)C(CCO)C1` (stereo not given), greater than 45.4 µg/mL; for `COC(Cn1cc(C)c(=O)[nH]c1=O)OC`, 30.3 µg/mL (≈ 141 µM).
For `CC1(C)CC2CC(C)(CN2C(=O)COC(=O)c2cccnc2Cl)C1` (stereo not given) the value was greater than 52.6 µg/mL; for `O=[N+]([O-])c1ccccc1OC/C(=N\O)c1ccccc1`, greater than 40.8 µg/mL.
With `O=[N+]([O-])c1ccc(C(O)CSC(=S)N2CCCCC2)cc1` (stereo not given) the figure was 2.6 µg/mL (≈ 7.96 µM); with `Cc1cc(C)c2c(CN3CC(C)OC(C)C3)cc(=O)oc2c1C` (stereo not given), 13.6 µg/mL (≈ 43.1 µM); with `CC(C)Oc1cccc(C(=O)NC2=NCCS2)c1`, 22 µg/mL (≈ 83.2 µM).
The molecule `Cc1[nH]c2ccc(C(=O)NCCCN3CCCC3)cc2c1C` displayed a kinetic solubility greater than 44.9 µg/mL.
With `O=C(CN1C(=O)c2cccc3cccc1c23)NC1CCCCC1` the figure was 1.8 µg/mL (≈ 5.84 µM); with `O=C(O)C1CCC(=O)N(C2CCCCC2)C1c1ccccc1Cl` (stereo not given), greater than 50.4 µg/mL.
With `Cc1ccccc1C(=O)c1cccn1CC(=O)NCc1ccccc1` the figure was 12.7 µg/mL (≈ 38.2 µM); with `CS(=O)(=O)N1CCCC(C(=O)Nc2c(F)cccc2F)C1` (stereo not given), greater than 47.8 µg/mL; with `N#Cc1ccccc1OCC(=O)OCC(=O)NC1CCCCCC1`, greater than 49.6 µg/mL.
For `O=C(O)c1ccccc1C(=O)Nc1ccc(Oc2cccc(C(F)(F)F)c2)nc1` the value was 60.2 µg/mL (≈ 150 µM); for `COc1cccc(CN(C)C(=S)Nc2ccc(C)c(C)c2)c1`, 25.1 µg/mL (≈ 79.8 µM); for `O=[N+]([O-])c1ccc(C(O)CN2CCOCC2)cc1` (stereo not given), greater than 37.8 µg/mL.
In the case of `CC(Sc1ccccn1)C(=O)NC1CCCC1` (stereo not given), the kinetic solubility is greater than 37.6 µg/mL.
For `Cc1cc(C)c(NC(=S)NCCO)c(C)c1` the value was greater than 35.8 µg/mL.
For `Cc1ccc(S(=O)(=O)NCCNC(=O)c2ccc(C)nc2)cc1` the value was greater than 50 µg/mL; for `c1ccc(-c2nccc(-c3ccc4c(c3)OCO4)n2)cc1`, less than 0.3 µg/mL.
For `CCOC(=O)C(=CNc1cc(C)ccc1-n1cccc1)C(=O)OCC` the value was 0.7 µg/mL (≈ 2.04 µM); for `COCCCNC(=S)Nc1cccc(SC)c1`, greater than 40.6 µg/mL.
In turn, `CC1CN(C(=O)c2ccc(-c3ccccc3Cl)o2)CC(C)O1` (stereo not given) had a kinetic solubility of 34.8 µg/mL (≈ 109 µM).
For `CCOC(=O)C[n+]1ccc2c([nH]c3ccccc32)c1C.[Br-]` the value was 49.7 µg/mL.
For `O=C(CN1C(=O)NC(c2ccccc2)(c2ccccc2)C1=O)Nc1ccc(N2CCOCC2)cc1` the value was 2.6 µg/mL (≈ 5.53 µM); for `CCOc1c(N2CC(C)OC(C)C2)c(=O)c1=O` (stereo not given), greater than 35.9 µg/mL.
In turn, `CCCCN(C(=O)c1cccc(-c2ccc(OC(C)=O)cc2)c1)c1c(N)n(CCC)c(=O)[nH]c1=O` yielded a solubility (kinetic) of 8.5 µg/mL (≈ 17.8 µM).
With `CC(C)(C)c1ccc(C(=O)O/N=C(\N)c2ccccc2)cc1` the figure was 1.1 µg/mL (≈ 3.71 µM); with `O=C(COC(=O)c1ccc2c(c1)OCCO2)NCCc1ccccc1`, 11.7 µg/mL (≈ 34.3 µM); with `CC(C)(C)CN1CCN(Cc2cccnc2)CC1CCO` (stereo not given), greater than 43.7 µg/mL.
In the case of `O=C(Nc1ccc2c(c1)CCC2)Nc1ccc(F)cc1F`, the kinetic solubility was less than 0.3 µg/mL.
For `Cc1cccc(N2C(=O)CC(c3ccc(F)cc3)C3=C2COC3=O)c1` (stereo not given) the value was greater than 50.6 µg/mL; for `COc1ccc(C(CNC(=O)c2cccc(S(=O)(=O)N3CCc4ccccc43)c2)N(C)C)cc1` (stereo not given), 39.3 µg/mL (≈ 81.9 µM); for `O=C(NC(Cc1ccc(O)cc1)C(=O)O)c1ccco1` (stereo not given), greater than 41.3 µg/mL.
With `O=C(N/C(=C/c1ccccc1Cl)C(=O)N1CCCC1)c1ccccc1`, the kinetic solubility is greater than 53.2 µg/mL.
Take `COc1ccccc1OCCCn1cc(C(C)=O)c2ccccc21`: the solubility (kinetic) was 25.8 µg/mL (≈ 79.8 µM).
With `CNC(=O)COC(=O)CCC(=O)c1ccc(Cl)cc1` the figure was 36.2 µg/mL (≈ 128 µM); with `COc1cc2c(cc1OC)C(c1ccccc1Br)NC(=O)C2` (stereo not given), greater than 54.3 µg/mL; with `Cc1sc(NC(=O)CCC(=O)O)c(C#N)c1C`, greater than 37.8 µg/mL.
In turn, `Cc1ccc2cccc(OCC(=O)N3CC(C)CC(C)C3)c2n1` (stereo not given) came in with a kinetic solubility of 46.2 µg/mL (≈ 148 µM).
For `c1ccc(CSc2nc3ncccn3n2)cc1` the value was greater than 36.3 µg/mL.
With `Cc1cc(=O)oc2cc(OCC(=O)Nc3ccccc3C(=O)O)ccc12` the figure was 52.9 µg/mL (≈ 150 µM).

The record behind these values is PubChem BioAssay AID1996.
